Source: USRE40086E1, “Method for treating bacterial infection with novel 7-substituted-9-substituted amino 6-demethyl-6-deoxytetracyclines” (Wyeth Holdings Corporation, priority 1991, dated 2008)
Counter-ions that a name gives are not always drawn.

What was measured:
[1] = test system: tetracycline-susceptible E. coli; test: Resumption of bacterial growth after washing out the antibiotic (reversibility of binding); type: cell-based; settings: 30 minutes at growth inhibitory concentrations, then centrifugation and fresh medium
Method: The antibiotics are added to exponentially growing cultures of tetracycline-susceptible E. coli at growth inhibitory concentrations. After 30 minutes, excess antibiotic is removed from the bacteria by centrifugation and the organism is resuspended in fresh growth medium. The ability of bacteria to resume growth is monitored. […] This reflects the different binding characteristics of the drugs.

E. coli PRP1 TetA = test: MIC, agar dilution (Table IA); type: cell-based; settings: unit assumed
[2] = test system: S. aureus ATCC 29213 (Sensitive); test: MIC, agar dilution; type: cell-based; settings: S. aureus ATCC 29213; Table IA; unit assumed
[3] = test system: X. maltophilia NEMC 87210; test: MIC, agar dilution (Table IA); type: cell-based; settings: unit assumed
E. coli #311 (MP) = test: MIC, agar dilution (Table IA); type: cell-based; settings: unit assumed
[4] = test system: Ps. acruginosa ATCC 27853; test: MIC, agar dilution (Table IA); type: cell-based; settings: unit assumed
[5] = test system: E. coli UBMS 89-2 (Sensitive); test: MIC, agar dilution; type: cell-based; settings: E. coli UBMS 89-2 Tet Sens.; Table IA; unit assumed
[6] = test system: S. haemolyticus AVAH 88-3; test: MIC, agar dilution; type: cell-based; settings: S. hemolyticus AVHAH 88-3; Table IA; unit assumed
E. coli UBMS 89-1 (tetM) = test: MIC, agar dilution; type: cell-based; settings: E. coli UBMS 89-1 TetM; Table IA; unit assumed
S. mariescens FDOR 8733 = test: MIC, agar dilution (Table IA); type: cell-based; settings: unit assumed
[7] = test system: S. aureus UBMS 90-3 (Sensitive); test: MIC, agar dilution; type: cell-based
E. coli UBMS 88-1 (tetB) = test: MIC, agar dilution; type: cell-based; settings: E. coli UBMS 88-1 TetB; Table IA; unit assumed
E. coli UBMS 90-5 = test: MIC, agar dilution (Table IA); type: cell-based; settings: unit assumed
E. coli J3272 TetC = test: MIC, agar dilution (Table IA); type: cell-based; settings: unit assumed
[8] = test system: S. aureus IVES 2943 (meth. resistant); test: MIC, agar dilution; type: cell-based; settings: S. aureus IVES 2943; Table IA; unit assumed
E. coli J3272 TetD = test: MIC, agar dilution (Table IA); type: cell-based; settings: unit assumed
E. coli J2175 = test: MIC, agar dilution (Table IA); type: cell-based; settings: unit assumed
E. coli UBMS 90-4 (tetM) = test: MIC, agar dilution; type: cell-based
S. aureus ROSE (MP) = test: MIC, agar dilution (Table IA); type: cell-based; settings: unit assumed
E. coli BAJ9003 = test: MIC, agar dilution (Table IA); type: cell-based; settings: unit assumed
[9] = test system: S. aureus Smith (Sensitive); test: MIC, agar dilution; type: cell-based; settings: S. aureus SMITH (MP); Table IA; unit assumed
[10] = test system: S. aureus UBMS 88-5 (tetM); test: MIC, agar dilution; type: cell-based
E. faecalis ATCC 29212 = test: MIC, agar dilution; type: cell-based; settings: E. faecalis ATCC 29212; Table IA; unit assumed
[11] = test system: S. aureus UBMS 90-1 (tetM); test: MIC, agar dilution; type: cell-based
[12] = test system: S. aureus UBMS 88-7 (tetK); test: MIC, agar dilution; type: cell-based; settings: S. aureus UBMS 88-7 TetK; Table IA; unit assumed
E. coli MC4100 TetB = test: MIC, agar dilution (Table IA); type: cell-based; settings: unit assumed
[13] = test system: S. aureus IVES 1983 (meth. resistant); test: MIC, agar dilution; type: cell-based; settings: S. aureus IVES 1983; Table IA; unit assumed
S. aureus SMITH (sens) [14] = test: In vivo antibacterial evaluation, acute lethal infection in mice; settings: Oral
Source text: In Vivo Antibacterial Evaluation (Table VII)

[15] = test system: S. aureus UBMS 90-2 (tetM); test: MIC, agar dilution; type: cell-based; settings: S. aureus UBMS 90-2 TetM; Table IA; unit assumed
E. coli MC4100 Tet sens. = test: MIC, agar dilution (Table IA); type: cell-based; settings: unit assumed
E. faecalis 12201 = test: MIC, agar dilution; type: cell-based; settings: Enterococcus 12201; Table IA; unit assumed
E. coli ATCC 25922 = test: MIC, agar dilution; type: cell-based; settings: E. coli ATCC 25922; Table IA; unit assumed
[16] = test system: S. aureus UBMS 88-4 (Sensitive); test: MIC, agar dilution; type: cell-based
S. aureus SMITH (sens) [17] = test: In vivo antibacterial evaluation, acute lethal infection in mice; settings: Intraveneous
S. aureus NEMC 8769/89-4 = test: MIC, agar dilution (Table IA); type: cell-based; settings: unit assumed
Citrobacter diversus = test: MIC vs recent clinical and agricultural isolates (Table V, KK); type: cell-based; settings: [10] tested
[18] = test system: Bordetella bronchiseptica (Agricultural); test: as above; type: cell-based; settings: [10] tested
Enterobacter cloacae = test: as above; type: cell-based; settings: [10] tested
[19] = test system: N. gonorrhoeae 6418 (tetM); test: MIC, agar dilution; type: cell-based; settings: Neisseria gonorrhoeae
Klebsiella oxytoca = test: MIC vs recent clinical and agricultural isolates (Table V, KK); type: cell-based; settings: [10] tested
[20] = test system: E. coli cell-free ribosomes, strain MRE 600 (TC Sensitive Host); test: E. coli in vitro cell free protein translation system (Table VI); type: biochemical
Proteus mirabilis = test: MIC vs recent clinical and agricultural isolates (Table V, KK); type: cell-based; settings: [26] tested
Proteus vulgaris = test: as above; type: cell-based; settings: [18] tested
Listeria monocytogenes = test: as above; type: cell-based; settings: [8] tested
Moraxella catarrhalis = test: as above; type: cell-based; settings: [18] tested
Streptococcus pyogenes = test: as above; type: cell-based; settings: [10] tested
Pseudomonas aeruginosa = test: as above; type: cell-based; settings: [10] tested
Clostridium perfringens = type: cell-based; settings: [16] tested
[21] = test system: Pasturella multocida (Agricultural & Clinical); test: MIC vs recent clinical and agricultural isolates (Table V, KK); type: cell-based; settings: [17] tested
Enterococcus faecalis = test: as above; type: cell-based; settings: [10] tested
Enterobacter aerogenes = test: as above; type: cell-based; settings: [10] tested
[22] = test system: E. coli cell-free ribosomes, strain MRE 600 (tetM) (Tet M Host); test: E. coli in vitro cell free protein translation system (Table VI); type: biochemical
Xanthomonas maltophilia = test: MIC vs recent clinical and agricultural isolates (Table V, KK); type: cell-based; settings: [10] tested
[23] = test system: Staphylococcus aureus, methicillin-susceptible; test: as above; type: cell-based; settings: [15] tested
[24] = test system: E. faecalis UBMS 90-6 (tetM); test: MIC, agar dilution; type: cell-based; settings: Enterococcus faecalis
Citrobacter freundii = test: MIC vs recent clinical and agricultural isolates (Table V, KK); type: cell-based; settings: [10] tested
Streptococcus agalactiae = test: as above; type: cell-based; settings: [10] tested
Haemophilus influenzae = test: as above; type: cell-based; settings: [15] tested
[25] = test system: E. faecalis UBMS 90-7 (tetM); test: MIC, agar dilution; type: cell-based; settings: Enterococcus faecalis
[26] = test system: Bacertoides fragilis group; test: MIC vs recent clinical and agricultural isolates (Table V, KK); type: cell-based; settings: [10] tested
Enterococcus faecium = test: as above; type: cell-based; settings: [10] tested
Streptococcus pneumoniae = test: as above; type: cell-based; settings: [10] tested

CN(C)c1cc(NC=O)c(O)c2c1CC1CC3C(N(C)C)C(O)=C(C(N)=O)C(=O)C3(O)C(O)=C1C2=O (centres unmarked)
ability of bacteria to resume growth after excess antibiotic is removed by washing [1]: bacterial growth resumed when the compound was removed

CCCCCCNCC(=O)Nc1cc(N(C)C)c2c(c1O)C(=O)C1=C(O)[C@]3(O)C(=O)C(C(N)=O)=C(O)[C@@H](N(C)C)C3CC1C2 (stereo partly drawn) [BBB, [4S-(4alpha,12aalpha)]-4,7-Bis(dimethylamino)-9-[[(hexylamino)acetyl]amino]-1,4,4a,5,5a,6,11,12a-octahydro-3,10,12,12a-tetrahydroxy-1,11-dioxo-2-naphthacenecarboxamide dihydrochloride]
Antibacterial activity (MIC) (E. coli PRP1 TetA): 0.5 µg/mL | Antibacterial activity (MIC) [2]: 0.25 µg/mL | Antibacterial activity (MIC) [3]: 4 µg/mL | Antibacterial activity (MIC) (E. coli #311 (MP)): 0.5 µg/mL | Antibacterial activity (MIC) [4]: 16 µg/mL | Antibacterial activity (MIC) [5]: 0.25 µg/mL | Antibacterial activity (MIC) [6]: 0.5 µg/mL | Antibacterial activity (MIC) (E. coli UBMS 89-1 (tetM)): 0.25 µg/mL | Antibacterial activity (MIC) (S. mariescens FDOR 8733): 4 µg/mL | Antibacterial activity (MIC) ([7]; S. aureus UBMS 90-3, Table IA, unit assumed): 0.06 µg/mL | Antibacterial activity (MIC) (E. coli UBMS 88-1 (tetB)): 0.5 µg/mL | Antibacterial activity (MIC) (E. coli UBMS 90-5): 0.25 µg/mL | Antibacterial activity (MIC) (E. coli J3272 TetC): 0.5 µg/mL | Antibacterial activity (MIC) [8]: 4 µg/mL | Antibacterial activity (MIC) (E. coli J3272 TetD): 0.12 µg/mL | Antibacterial activity (MIC) (E. coli J2175): 0.25 µg/mL | Antibacterial activity (MIC) (E. coli UBMS 90-4 (tetM); E. coli UBMS 90-4 TetM, Table IA, unit assumed): 0.25 µg/mL | Antibacterial activity (MIC) (S. aureus ROSE (MP)): 16 µg/mL | Antibacterial activity (MIC) (E. coli BAJ9003): 0.06 µg/mL | Antibacterial activity (MIC) [9]: 0.12 µg/mL | Antibacterial activity (MIC) ([10]; S. aureus UBMS 88-5 TetM, Table IA, unit assumed): 0.5 µg/mL | Antibacterial activity (MIC) (E. faecalis ATCC 29212): 0.12 µg/mL | Antibacterial activity (MIC) ([11]; S. aureus UBMS 90-1 TetM, Table IA, unit assumed): 0.25 µg/mL | Antibacterial activity (MIC) [12]: 2 µg/mL | Antibacterial activity (MIC) (E. coli MC4100 TetB): 0.5 µg/mL | Antibacterial activity (MIC) [13]: 4 µg/mL | ED50 (S. aureus SMITH (sens) [14]): 4 to 8 mg/kg | Antibacterial activity (MIC) [15]: 0.25 µg/mL | Antibacterial activity (MIC) (E. coli MC4100 Tet sens.): 0.25 µg/mL | Antibacterial activity (MIC) (E. faecalis 12201): 0.25 µg/mL | Antibacterial activity (MIC) (E. coli ATCC 25922): 0.12 µg/mL | Antibacterial activity (MIC) ([16]; S. aureus UBMS 88-4, Table IA, unit assumed): 0.25 µg/mL | ED50 (S. aureus SMITH (sens) [17]): 1.8 mg/kg | Antibacterial activity (MIC) (S. aureus NEMC 8769/89-4): 0.06 µg/mL

CN(C)[C@@H]1C(O)=C(C(N)=O)C(=O)[C@@]2(O)C(O)=C3C(=O)c4c(O)cccc4[C@@](C)(O)[C@H]3C[C@@H]12 [TC, Tetracycline hydrochloride]
MIC (range over isolates) (Citrobacter diversus): 0.5 to 4 µg/mL | MIC (range over isolates) [18]: 0.12 to 0.25 µg/mL | MIC (range over isolates) (Enterobacter cloacae): 0.5 to 2 µg/mL | MIC [19]: > 32 µg/mL | MIC (range over isolates) (Klebsiella oxytoca): 0.5 to 1 µg/mL | IC50, concentration of antibiotic required to inhibit protein synthesis by 50% compared to a drug-free control [20]: 0.6 µg/mL | MIC ([7]; Staphylococcus aureus, S. aureus UBMS 90-3 (Sensitive), read-out: MIC): 0.12 µg/mL | MIC (range over isolates) (Proteus mirabilis): 0.5 to 64 µg/mL | MIC (range over isolates) (Proteus vulgaris): 0.25 to 64 µg/mL | MIC (range over isolates) (Listeria monocytogenes): 0.12 to 0.5 µg/mL | MIC (range over isolates) (Moraxella catarrhalis): 0.06 to 0.5 µg/mL | MIC (range over isolates) (Streptococcus pyogenes): 0.12 to 16 µg/mL | MIC (E. coli UBMS 90-4 (tetM); Escherichia coli): 64 µg/mL | MIC (range over isolates) (Pseudomonas aeruginosa): 2 to 32 µg/mL | MIC (range over isolates) (Clostridium perfringens): 0.015 to 16 µg/mL | MIC (range over isolates) [21]: 0.06 to 16 µg/mL | MIC ([10]; Staphylococcus aureus): 32 µg/mL | MIC (range over isolates) (Enterococcus faecalis): 0.12 to 64 µg/mL | MIC ([11]; Staphylococcus aureus): 32 µg/mL | MIC (range over isolates) (Enterobacter aerogenes): 0.5 to 1 µg/mL | IC50, concentration of antibiotic required to inhibit protein synthesis by 50% compared to a drug-free control [22]: 2.0 µg/mL | MIC (range over isolates) (Xanthomonas maltophilia): 8 to 16 µg/mL | MIC (range over isolates) [23]: 0.12 to 1 µg/mL | MIC [24]: 32 µg/mL | MIC (range over isolates) (Citrobacter freundii): 0.5 to 16 µg/mL | MIC (range over isolates) (Streptococcus agalactiae): 0.25 to 64 µg/mL | MIC (range over isolates) (Haemophilus influenzae): 1 to 32 µg/mL | MIC [25]: 32 µg/mL | MIC (range over isolates) [26]: 0.25 to 32 µg/mL | MIC (range over isolates) (Enterococcus faecium): 0.12 to 64 µg/mL | MIC ([16]; Staphylococcus aureus, S. aureus UBMS 88-4 (Sensitive), read-out: MIC): 0.12 µg/mL | MIC (range over isolates) (Streptococcus pneumoniae): 0.12 to 2 µg/mL

polymyxin [reference compound]
ability of bacteria to resume growth after excess antibiotic is removed by washing [1]: continues to prevent bacterial growth even when excess antibiotic is removed
